Laboratory results published in patent publication US9512107B2, “Therapeutically active compositions and their methods of use” (Agios Pharmaceuticals, Inc., priority 2012, dated 2016).
Substitutions are numbered along the chain they refer to.

Assays:
IDH2 R140Q = molecular target: T1, IDH2 R140Q (Homo sapiens, UniProt P48735, R140Q); assay: IDH2 R140Q enzymatic assay (cofactor depletion, similar format); format: biochemical; conditions: read-out: Enz R140Q
T1 sequence (P48735 40-452 R140Q): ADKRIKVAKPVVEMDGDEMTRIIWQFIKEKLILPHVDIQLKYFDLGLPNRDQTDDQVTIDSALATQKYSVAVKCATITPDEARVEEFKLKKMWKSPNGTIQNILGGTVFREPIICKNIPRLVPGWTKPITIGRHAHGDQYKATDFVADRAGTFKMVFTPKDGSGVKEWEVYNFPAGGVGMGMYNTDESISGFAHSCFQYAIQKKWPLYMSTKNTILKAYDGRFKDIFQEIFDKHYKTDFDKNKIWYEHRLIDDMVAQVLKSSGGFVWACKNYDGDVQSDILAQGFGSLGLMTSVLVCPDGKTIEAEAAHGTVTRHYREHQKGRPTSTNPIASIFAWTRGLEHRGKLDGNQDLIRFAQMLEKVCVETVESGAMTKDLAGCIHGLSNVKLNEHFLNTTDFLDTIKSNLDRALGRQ

[1] = tested on: U87MG pLVX-IDH2 R140Q-neo cells; assay: U87MG pLVX-IDH2 R140Q-neo cell based assay, 2-HG in media by LC-MS at 48 hours; conditions: Homo sapiens, U-87 MG
In short: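 U87MG cells stably expressing IDH2 R140Q were seeded overnight, then exposed to compound at 0.2% final DMSO at 37 °C, 5% CO2. 2-HG in the medium was quantified by LC-MS at 48 h. Growth inhibition was read by CellTiter-Glo luminescence at 72 h.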

IDH2 R172K = molecular target: T2, IDH2 R172K (Homo sapiens, UniProt P48735, R172K); assay: IDH2 R172K enzymatic assay (NADPH cofactor depletion, diaphorase/resazurin readout); format: biochemical; conditions: read-out: Enz R172K
T2 sequence (P48735 40-452 R172K): T1 sequence (P48735 40-452 R140Q) with Q101R, R133K
In short: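 Compound was preincubated with IDH2 R172K for 1 h at room temperature, then the reaction was started with substrate mix containing 50 μM NADPH and 6.3 mM α-KG. After another 1 h at room temperature, stop mix with diaphorase and resazurin consumed the remaining NADPH, and resorufin fluorescence was read.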

| IC50 (IDH2 R140Q) | IC50 [1] | IC50 (IDH2 R172K) | SMILES |
| --- | --- | --- | --- |
| 100 to 1000 nM | 100 to 1000 nM | 1000 to 10000 nM | CC(C)Nc1nc(Nc2cccc(S(C)(=O)=O)c2)nc(-c2nc(F)ccc2F)n1 [Compound 454] |
| 100 to 1000 nM | < 100 nM | < 100 nM | CC(C)Nc1nc(Nc2cc(F)cc(F)c2)nc(-c2nccc(C(F)(F)F)n2)n1 [Compound 455, N-(3,5-Difluoro-phenyl)-N′-isopropyl-6-(4-trifluoromethyl-pyrimidin-2-yl)-[1,3,5]triazine-2,4-diamine] |
| 100 to 1000 nM | < 100 nM | 100 to 1000 nM | CC(C)Nc1nc(Nc2cncc(F)c2)nc(-c2ncccc2F)n1 [Compound 456, N-(5-Fluoro-pyridin-3-yl)-6-(3-fluoro-pyridin-2-yl)-N′-isopropyl-[1,3,5]triazine-2,4-diamine] |
| 100 to 1000 nM | < 100 nM | 100 to 1000 nM | CC(C)Nc1nc(Nc2cc(F)cc(F)c2)nc(-c2nccc(N)n2)n1 [Compound 458, 6-(4-Amino-pyrimidin-2-yl)-N-(3,5-difluoro-phenyl)-N′-isopropyl-[1,3,5]triazine-2,4-diamine] |
| < 100 nM | < 100 nM | < 100 nM | CC(C)Nc1nc(Nc2cc(F)cc(F)c2)nc(-c2ncccc2F)n1 [Compound 459, N-(3,5-Difluoro-phenyl)-6-(3-fluoro-pyridin-2-yl)-N′-isopropyl-[1,3,5]triazine-2,4-diamine] |
| < 100 nM | < 100 nM | < 100 nM | CC(C)Nc1nc(Nc2cc(F)cc(F)c2)nc(-c2nc(F)ccc2F)n1 [Compound 460, N-(3,5-Difluoro-phenyl)-6-(3,6-difluoro-pyridin-2-yl)-N′-isopropyl-[1,3,5]triazine-2,4-diamine] |
| < 100 nM | < 100 nM | < 100 nM | COc1ccc(F)c(-c2nc(Nc3cc(F)cc(F)c3)nc(NC(C)C)n2)n1 [Compound 461, N-(3,5-Difluoro-phenyl)-6-(3-fluoro-6-methoxy-pyridin-2-yl)-N′-isopropyl-[1,3,5]triazine-2,4-diamine] |
| 100 to 1000 nM | 100 to 1000 nM | 100 to 1000 nM | CC(C)Nc1nc(Nc2ccc(F)nc2)nc(-c2cccc(N)n2)n1 [Compound 462, 6-(6-Amino-pyridin-2-yl)-N-(6-fluoro-pyridin-3-yl)-N′-isopropyl-[1,3,5]triazine-2,4-diamine] |
| 100 to 1000 nM | < 100 nM | < 100 nM | CC#Cc1cccc(-c2nc(Nc3cc(F)cc(F)c3)nc(NC(C)C)n2)n1 [Compound 463, N-(3,5-Difluoro-phenyl)-N′-isopropyl-6-(6-prop-1-ynyl-pyridin-2-yl)-[1,3,5]triazine-2,4-diamine] |
| 100 to 1000 nM | < 100 nM | < 100 nM | CNc1cccc(-c2nc(Nc3cc(F)cc(F)c3)nc(NC(C)C)n2)n1 [Compound 465] |
| 100 to 1000 nM | < 100 nM | 100 to 1000 nM | CC(C)Nc1nc(Nc2cccc(S(C)(=O)=O)c2)nc(-c2c(F)cccc2F)n1 [Compound 466, 6-(2,6-difluorophenyl)-N2-isopropyl-N4-(3-(methylsulfonyl)phenyl)-1,3,5-triazine-2,4-diamine] |
| 100 to 1000 nM | 100 to 1000 nM | 100 to 1000 nM | CC#Cc1cccc(-c2nc(Nc3cccc(F)c3)nc(NC(C)C)n2)n1 [Compound 467, N-(3-Fluoro-phenyl)-N′-isopropyl-6-(6-prop-1-ynyl-pyridin-2-yl)-[1,3,5]triazine-2,4-diamine] |
| 100 to 1000 nM | < 100 nM | < 100 nM | CC(C)Nc1nc(Nc2cncc(C(F)(F)F)c2)nc(-c2cccc(N)n2)n1 [Compound 468, 6-(6-Amino-pyridin-2-yl)-N-isopropyl-N′-(5-trifluoromethyl-pyridin-3-yl)-[1,3,5]triazine-2,4-diamine] |
| < 100 nM | < 100 nM | < 100 nM | CC(C)Nc1nc(Nc2cc(F)cc(F)c2)nc(-c2nc(O)ccc2F)n1 [Compound 469, 6-[4-(3,5-Difluoro-phenylamino)-6-isopropylamino-[1,3,5]triazin-2-yl]-5-fluoro-pyridin-2-ol] |
| 100 to 1000 nM | < 100 nM | 100 to 1000 nM | CC(C)Nc1nc(Nc2cncc(F)c2)nc(-c2cccc(N)n2)n1 [Compound 470, 6-(6-Amino-pyridin-2-yl)-N-(5-fluoro-pyridin-3-yl)-N′-isopropyl-[1,3,5]triazine-2,4-diamine] |
| 100 to 1000 nM | < 100 nM | 100 to 1000 nM | Cc1nc(-c2nc(Nc3cccc(F)c3)nc(NC(C)C)n2)co1 [Compound 471, N-(3-Fluoro-phenyl)-N′-isopropyl-6-(2-methyl-oxazol-4-yl)-[1,3,5]triazine-2,4-diamine] |
| < 100 nM | < 100 nM | 100 to 1000 nM | Cc1cc(-c2nc(Nc3cccc(F)c3)nc(NC(C)C)n2)no1 [Compound 472, N-(3-Fluoro-phenyl)-N′-isopropyl-6-(5-methyl-isoxazol-3-yl)-[1,3,5]triazine-2,4-diamine] |
| < 100 nM | < 100 nM | < 100 nM | CC(C)Nc1nc(Nc2cccc(F)c2)nc(-c2c(F)cccc2F)n1 [Compound 473, 6-(2,6-Difluoro-phenyl)-N-(3-fluoro-phenyl)-N′-isopropyl-[1,3,5]triazine-2,4-diamine] |
| 100 to 1000 nM | < 100 nM | < 100 nM | CC(C)Nc1nc(Nc2cncc(F)c2)nc(-c2c(F)cccc2F)n1 [Compound 474, 6-(2,6-Difluoro-phenyl)-N-(5-fluoro-pyridin-3-yl)-N′-isopropyl-[1,3,5]triazine-2,4-diamine] |
| < 100 nM | < 100 nM | < 100 nM | CC(C)Nc1nc(Nc2cccc(F)c2)nc(-c2nc(C(F)(F)F)cs2)n1 [Compound 475, N-(3-Fluoro-phenyl)-N′-isopropyl-6-(4-trifluoromethyl-thiazol-2-yl)-[1,3,5]triazine-2,4-diamine] |
| < 100 nM | < 100 nM | 100 to 1000 nM | Cc1nc(-c2nc(Nc3cc(F)cc(F)c3)nc(NC(C)C)n2)co1 [Compound 476, N-(3,5-Difluoro-phenyl)-N′-isopropyl-6-(2-methyl-oxazol-4-yl)-[1,3,5]triazine-2,4-diamine] |
| 100 to 1000 nM | < 100 nM | < 100 nM | CC(C)Nc1nc(Nc2cc(F)cc(F)c2)nc(-c2nc(N)ccc2F)n1 [Compound 477, 6-(6-amino-3-fluoropyridin-2-yl)-N2-(3,5-difluorophenyl)-N4-isopropyl-1,3,5-triazine-2,4-diamine] |
| 100 to 1000 nM | < 100 nM | < 100 nM | Nc1ccnc(-c2nc(NCC3CC3)nc(Nc3cc(F)cc(F)c3)n2)n1 [Compound 478, 6-(4-Amino-pyrimidin-2-yl)-N-cyclopropylmethyl-N′-(3,5-difluoro-phenyl)-[1,3,5]triazine-2,4-diamine] |
| 100 to 1000 nM | < 100 nM | 100 to 1000 nM | CC(C)(C)Nc1nc(Nc2cc(F)cc(F)c2)nc(-c2nccc(N)n2)n1 [Compound 479, 6-(4-Amino-pyrimidin-2-yl)-N-tert-butyl-N′-(3,5-difluoro-phenyl)-[1,3,5]triazine-2,4-diamine] |
| 100 to 1000 nM | < 100 nM | 100 to 1000 nM | Nc1ccnc(-c2nc(NCC(F)(F)F)nc(Nc3cc(F)cc(F)c3)n2)n1 [Compound 480, 6-(4-Amino-pyrimidin-2-yl)-N-(3,5-difluoro-phenyl)-N′-(2,2,2-trifluoro-ethyl)-[1,3,5]triazine-2,4-diamine] |
| 100 to 1000 nM | < 100 nM | < 100 nM | CC(C)Nc1nc(Nc2cc(F)cc(F)c2)nc(-c2nc(N)cc(C(F)(F)F)n2)n1 [Compound 481, 6-(4-amino-6-(trifluoromethyl)pyrimidin-2-yl)-N2-(3,5-difluorophenyl)-N4-isopropyl-1,3,5-triazine-2,4-diamine] |
| 100 to 1000 nM | < 100 nM | < 100 nM | CC(C)Nc1nc(Nc2cc(F)cc(F)c2)nc(-c2ccnc(N)n2)n1 [Compound 482, 6-(2-Amino-pyrimidin-4-yl)-N-(3,5-difluoro-phenyl)-N′-isopropyl-[1,3,5]triazine-2,4-diamine] |
| 100 to 1000 nM | 100 to 1000 nM | 1000 to 10000 nM | CC(C)Nc1nc(Nc2cccc(S(C)(=O)=O)c2)nc(-c2cc(Cl)cc(Cl)n2)n1 [Compound 483, 6-(4,6-dichloropyridin-2-yl)-N2-isopropyl-N4-(3-(methylsulfonyl)phenyl)-1,3,5-triazine-2,4-diamine] |
